Reference: article PMC6199744, “Development of Chemical Proteomics for the Folateome and Analysis of the Kinetoplastid Folateome” (ACS Infectious Diseases, 2018)
“And” between values parts separate entries of the source, which are not always exact repeats. Identical values can stand only once. Like-named read-outs stand apart in the source and are kept apart here.

System: T. brucei lysate proteins
Assay type: binding, Trypanosoma brucei

## NCCOCCOCC(=O)Nc1nc2ncc(CNc3ccc(C(=O)NC(CCC(=O)O)C(=O)O)cc3)nc2c(=O)[nH]1 (stereo not shown) [compound 6]
  fold change vs vehicle control: 0.88 and 0.97 and 1.1 and 0.99 and 0.76 and 1
Protein CZB00000046.1 HA-UBIQUITIN, vehicle control = 1
  fold change: 0.9
Protein CZT00018965.1 RETRO[…] (RHS) PROTEIN 1, vehicle control = 1
  fold change: 1.49
Protein RHS6A, vehicle control = 1
  fold change: 1
Protein TB09.160.3270 ATP-DEPENDENT DEAD BOX HELICASE, PUTATIVE, vehicle control = 1
  fold change vs vehicle control: 1.28
Protein TB09.160.4200 60S ACIDIC RIBOSOMAL PROTEIN, PUTATIVE, vehicle control = 1
  fold change vs vehicle control: 0.88
Protein TB09.211.2630 60S RIBOSOMAL PROTEIN L23, PUTATIVE, vehicle control = 1
  fold change vs vehicle control: 0.96
Protein TB09.211.4760 METACASPASE 5, PUTATIVE, vehicle control = 1
  fold change: 0.82
Protein TB11.01.1690 HY[…], CONSERVED, vehicle control = 1
  fold change: 1.19
Protein TB11.01.2560 40S RIBOSOMAL PROTEIN SA, PUTATIVE, vehicle control = 1
  fold change vs vehicle control: 0.94
Protein TB11.01.3180 GUANINE NUCLEOTIDE-BINDING PROTEIN BETA SUBUNIT-LIKE PROTEIN, vehicle control = 1
  fold change vs vehicle control: 0.97
Protein TB11.01.3560 VACUOLAR ATP SYNTHASE SUBUNIT B, PUTATIVE, vehicle control = 1
  fold change: 0.93
Protein TB11.01.4370 HY[…], CONSERVED, vehicle control = 1
  fold change vs vehicle control: 0.96
Protein TB11.01.5350 PROFILIN, vehicle control = 1
  fold change: 0.97
Protein TB11.01.5910 DYNEIN IN[…] IC70, PUTATIVE, vehicle control = 1
  fold change vs vehicle control: 0.99
Protein TB11.01.8590 RAB-LIKE 5, SMALL G PROTEIN, vehicle control = 1
  fold change: 0.94
Protein TB11.01.8740 PROTEIN PHOSPHATASE 4, PUTATIVE, vehicle control = 1
  fold change: 0.8
Protein TB11.02.0730 METACASPASE, vehicle control = 1
  fold change vs vehicle control: 0.84
Protein TB11.02.1135 DYNEIN LIGHT CHAIN, PUTATIVE, vehicle control = 1
  fold change vs vehicle control: 1.14
Protein TB11.02.2040 HY[…], CONSERVED (ALBA-Domain Protein), vehicle control = 1
  fold change vs vehicle control: 1.34
Protein TB11.02.2420 HY[…], CONSERVED, vehicle control = 1
  fold change vs vehicle control: 0.9
Protein TB11.02.2510 GUANINE NUCLEOTIDE-BINDING BETA SUBUNIT-LIKE PROTEIN, vehicle control = 1
  fold change vs vehicle control: 1
Protein TB11.02.2640 DYNEIN IN[…] IC78, PUTATIVE, vehicle control = 1
  fold change vs vehicle control: 0.97
Protein TB11.02.2960 MIT[…] PROTEIN, PUTATIVE, vehicle control = 1
  fold change: 0.88
Protein TB11.03.0250 C[…], vehicle control = 1
  fold change vs vehicle control: 1.45
Protein TB11.46.0009 HY[…], CONSERVED, vehicle control = 1
  fold change: 0.99
Protein TB427TMP.01.1680 POLYUBIQUITIN, PUTATIVE, vehicle control = 1
  fold change vs vehicle control: 1.25
Protein TB427TMP.01.1830 HY[…], CONSERVED, vehicle control = 1
  fold change: 0.89
Protein TB427TMP.01.4280 HY[…], CONSERVED, vehicle control = 1
  fold change vs vehicle control: 0.84
Protein TB427TMP.01.4750 […] 1 GAMMA, PUTATIVE, vehicle control = 1
  fold change: 1
Protein TB427TMP.01.5000 HY[…], CONSERVED, vehicle control = 1
  fold change vs vehicle control: 0.91
Protein TB427TMP.01.5680 HY[…], CONSERVED, vehicle control = 1
  fold change vs vehicle control: 1.21
Protein TB427TMP.01.5960 MIT[…] PROTEIN, PUTATIVE, vehicle control = 1
  fold change: 0.82
Protein TB427TMP.01.6890 SMALL GTPASE, PUTATIVE, vehicle control = 1
  fold change vs vehicle control: 1.56
Protein TB427TMP.01.7490 HY[…], CONSERVED, vehicle control = 1
  fold change: 0.97
Protein TB427TMP.01.8390 HY[…], CONSERVED, vehicle control = 1
  fold change: 0.88
Protein TB427TMP.02.0030 DYNEIN HEAVY CHAIN, PUTATIVE, vehicle control = 1
  fold change: 1
Protein TB427TMP.02.0760 DYNEIN HEAVY CHAIN, PUTATIVE, vehicle control = 1
  fold change: 0.82
Protein TB427TMP.02.1070 AMINOPEPTIDASE, PUTATIVE, vehicle control = 1
  fold change: 1.1
Protein TB427TMP.02.1460 HY[…], CONSERVED, vehicle control = 1
  fold change: 0.98
Protein TB427TMP.02.1860 HY[…], CONSERVED, vehicle control = 1
  fold change: 0.97
Protein TB427TMP.02.2070 LONG-CHAIN-FATTY-ACID-COA LIGASE, PUTATIVE, vehicle control = 1
  fold change vs vehicle control: 0.99
Protein TB427TMP.02.2120 NUCLEOPORIN 48, vehicle control = 1
  fold change vs vehicle control: 1.18
Protein TB427TMP.02.2890 HY[…], CONSERVED, vehicle control = 1
  fold change vs vehicle control: 0.94
Protein TB427TMP.02.4100 PRETRA[…], ALPHA SUBUNIT, PUTATIVE, vehicle control = 1
  fold change: 1.3
Protein TB427TMP.02.4550 HY[…], CONSERVED, vehicle control = 1
  fold change: 0.88
Protein TB427TMP.02.5660 HY[…], CONSERVED, vehicle control = 1
  fold change: 0.95
Protein TB427TMP.02.5720 RIBONUCLEOSIDE-DIPHOSPHATE REDUCTASE LARGE CHAIN, vehicle control = 1
  fold change vs vehicle control: 0.88
Protein TB427TMP.160.2370 HY[…], CONSERVED, vehicle control = 1
  fold change: 0.93
Protein TB427TMP.160.3630 CAMP-SPECIFIC PHOSPHODIESTERASE, vehicle control = 1
  fold change: 0.97
Protein TB427TMP.160.4240 […] PROTEIN-LIKE PROTEIN, vehicle control = 1
  fold change: 1.2
Protein TB427TMP.160.4450 40S RIBOSOMAL PROTEIN S3, PUTATIVE, vehicle control = 1
  fold change vs vehicle control: 1.12
Protein TB427TMP.160.4560 ARGININE KINASE, vehicle control = 1
  fold change vs vehicle control: 1.65
Protein TB427TMP.160.4630 HY[…], CONSERVED, vehicle control = 1
  fold change vs vehicle control: 0.88
Protein TB427TMP.160.4770 PROTEIN KINASE, PUTATIVE, vehicle control = 1
  fold change: 0.84
Protein TB427TMP.160.4910 FLAVOPROTEIN MONOOXYGENASE, PUTATIVE, vehicle control = 1
  fold change: 0.97
Protein TB427TMP.160.5670 HY[…], CONSERVED, vehicle control = 1
  fold change: 0.99
Protein TB427TMP.211.2460 HY[…], CONSERVED, vehicle control = 1
  fold change: 0.99
Protein TB427TMP.211.2570 T-COMPLEX PROTEIN 1, ETA SUBUNIT, PUTATIVE, vehicle control = 1
  fold change vs vehicle control: 0.91
Protein TB427TMP.211.3140 HY[…], CONSERVED, vehicle control = 1
  fold change vs vehicle control: 1.47
Protein TB427TMP.211.3510 ATP-DEPENDENT DEAD/H RNA HELICASE, PUTATIVE, vehicle control = 1
  fold change vs vehicle control: 0.88
Protein TB427TMP.211.4170 HY[…], CONSERVED, vehicle control = 1
  fold change vs vehicle control: 0.88
Protein TB427TMP.47.0011 HY[…], CONSERVED, vehicle control = 1
  fold change: 0.93
Protein TB427TMP.55.0006 INTR[…] PROTEIN IFT88, vehicle control = 1
  fold change vs vehicle control: 0.95
Protein TB427TMP.57.0008 CALPAIN-LIKE PROTEIN, PUTATIVE, vehicle control = 1
  fold change vs vehicle control: 0.97
Protein TB427TMP.V1.0370 HY[…], CONSERVED, vehicle control = 1
  fold change: 0.88
Protein TB427.01.120 RETRO[…] SPOT (RHS) PROTEIN, PUTATIVE, vehicle control = 1
  fold change vs vehicle control: 0.88
Protein TB427.01.2570 COATOMER BETA SUBUNIT, vehicle control = 1
  fold change: 0.88
Protein TB427.01.420 RETRO[…] SPOT (RHS) PROTEIN, PUTATIVE, vehicle control = 1
  fold change: 0.97
Protein TB427.01.5030 LEUCINE-RICH REPEAT PROTEIN (LRRP), PUTATIVE, vehicle control = 1
  fold change: 0.93
Protein TB427.02.2970 MIT[…] PROTEIN, PUTATIVE, vehicle control = 1
  fold change vs vehicle control: 1.21
Protein TB427.02.6050 BETA PRIME COP PROTEIN, vehicle control = 1
  fold change vs vehicle control: 1.36
Protein TB427.03.1210 PROTEIN TRANSPORT PROTEIN SEC24, vehicle control = 1
  fold change vs vehicle control: 1.1
Protein TB427.03.3160 POLY(A) POLYMERASE, vehicle control = 1
  fold change vs vehicle control: 0.47
Protein TB427.03.4040 HY[…], CONSERVED (Ankyrinrepeat), vehicle control = 1
  fold change vs vehicle control: 2.65
Protein TB427.03.4750 AMINOPEPTIDASE, PUTATIVE, vehicle control = 1
  fold change vs vehicle control: 1.1
Protein TB427.03.4910 SIGNAL PEPTIDE PEPTIDASE, PUTATIVE, vehicle control = 1
  fold change: 1.22
Protein TB427.04.1300 HY[…], CONSERVED, vehicle control = 1
  fold change: 1.2
Protein TB427.04.1510 PHOSPHOLIPID-TRA[…], PUTATIVE, vehicle control = 1
  fold change vs vehicle control: 1
Protein TB427.04.2340 HY[…], CONSERVED, vehicle control = 1
  fold change: 0.92
Protein TB427.04.310 HY[…], CONSERVED, vehicle control = 1
  fold change: 0.6
Protein TB427.04.420 PHOSPHATIDYLINOSITOL 3-KINASE (TOR2), vehicle control = 1
  fold change: 0.71
Protein TB427.04.450 COATOMER ALPHA SUBUNIT, PUTATIVE, vehicle control = 1
  fold change: 0.86
Protein TB427.04.4870 AMINO ACID TRANSPORTER, PUTATIVE, vehicle control = 1
  fold change vs vehicle control: 1.1
Protein TB427.04.5010 CALRETICULIN, PUTATIVE, vehicle control = 1
  fold change: 1.53
Protein TB427.05.1700 R[…] A 28 KDA SUBUNIT, PUTATIVE, vehicle control = 1
  fold change vs vehicle control: 1.31
Protein TB427.05.3260 HY[…], CONSERVED, vehicle control = 1
  fold change vs vehicle control: 0.88
Protein TB427.05.4560 GUANINE DEAMINASE, PUTATIVE, vehicle control = 1
  fold change vs vehicle control: 0.93
Protein TB427.06.1070 HY[…], CONSERVED, vehicle control = 1
  fold change vs vehicle control: 0.94
Protein TB427.06.1500 ALKYL-DIHYDR[…] SYNTHASE, vehicle control = 1
  fold change vs vehicle control: 0.97
Protein TB427.06.1800 PROTEIN PHOSPHATASE 2C, PUTATIVE, vehicle control = 1
  fold change: 0.92
